# Measurements taken from ChEMBL document CHEMBL3414487, “Synthesis and biological activity of salinomycin conjugates with floxuridine” (Eur J Med Chem, 2015).
# Columns and labels:
# [1] = Antiproliferative activity against human HL60 cells assessed as growth inhibition after 72 hrs by MTT assay; type: functional, cell-based; details: HL-60, 72 h
# [2] = Antiproliferative activity against human vincristine-resistant HL60/Vinc cells assessed as growth inhibition after 72 hrs by MTT assay; type: functional; details: for IC50: Homo sapiens, HL60/vinc, 72 h
# [3] = test system: LoVo; assay: Antiproliferative activity against human LoVo cells assessed as growth inhibition after 72 hrs by SRB method; type: functional, cell-based; details: for IC50: Homo sapiens, LoVo, 72 h
# [4] = Antiproliferative activity against human doxorubicin-resistant LoVo/DX cells assessed as growth inhibition after 72 hrs by SRB method; type: functional, cell-based
# [5] = test system: HT-29; assay: Antiproliferative activity against human HT-29 cells assessed as growth inhibition after 72 hrs by SRB method; type: functional, cell-based; details: for IC50: Homo sapiens, HT-29, 72 h
# [6] = Antiproliferative activity against human LS180 cells assessed as growth inhibition after 72 hrs by SRB method; type: functional, cell-based; details: for IC50: Homo sapiens, LS180, 72 h
# [7] = Antiproliferative activity against human SW707 cells assessed as growth inhibition after 72 hrs by SRB method; type: functional, cell-based; details: for IC50: Homo sapiens, SW707, 72 h
# [8] = test system: BALB/3T3; assay: Antiproliferative activity against mouse BALB/3T3 cells assessed as growth inhibition after 72 hrs by SRB method; type: cell-based; details: BALB/3T3, 72 h
# [9] = test system: HL-60; assay: Selectivity index, ratio of IC50 for mouse BALB/3T3 cells to IC50 for human HL60 cells; type: functional
# [10] = Selectivity index, ratio of IC50 for mouse BALB/3T3 cells to IC50 for human HL60/Vinc cells; type: functional
# [11] = Selectivity index, ratio of IC50 for mouse BALB/3T3 cells to IC50 for human LoVo/DX cells; type: functional
# [12] = test system: HL-60; assay: Resistance index, ratio of IC50 for human HL60/Vinc cells to IC50 for human HL60 cells
# [13] = test system: Staphylococcus aureus; assay: Antimicrobial activity against Staphylococcus aureus […] 4163 after 18 hrs by two-fold serial microdilution method; type: functional
# [14] = test system: Staphylococcus aureus; assay: Antimicrobial activity against Staphylococcus aureus ATCC 25923 after 18 hrs by two-fold serial microdilution method; type: functional; details: ATCC 25923, 18 h
# [15] = test system: Staphylococcus aureus; assay: Antimicrobial activity against Staphylococcus aureus ATCC 6538 after 18 hrs by two-fold serial microdilution method; type: functional; details: ATCC 6538, 18 h
# [16] = test system: Staphylococcus aureus; assay: Antimicrobial activity against Staphylococcus aureus ATCC 29213 after 18 hrs by two-fold serial microdilution method; type: functional; details: ATCC 29213, 18 h
# [17] = test system: Staphylococcus epidermidis; assay: Antimicrobial activity against Staphylococcus epidermidis ATCC 12228 after 18 hrs by two-fold serial microdilution method; type: functional; details: ATCC 12228, 18 h
# [18] = test system: Staphylococcus epidermidis; assay: Antimicrobial activity against Staphylococcus epidermidis ATCC 35984 after 18 hrs by two-fold serial microdilution method; type: functional; details: ATCC 35984, 18 h
# [19] = test system: Staphylococcus aureus; assay: Antimicrobial activity against methicillin-resistant Staphylococcus aureus 452/11 after 18 hrs by two-fold serial microdilution method; type: functional; details: 452/11, 18 h
# [20] = test system: Staphylococcus aureus; assay: Antimicrobial activity against methicillin-resistant Staphylococcus aureus 456/11 after 18 hrs by two-fold serial microdilution method; type: functional; details: 456/11, 18 h
# [21] = test system: Staphylococcus aureus; assay: Antimicrobial activity against methicillin-resistant Staphylococcus aureus 462/11 after 18 hrs by two-fold serial microdilution method; type: functional; details: 462/11, 18 h
# [22] = test system: Staphylococcus aureus; assay: Antimicrobial activity against methicillin-resistant Staphylococcus aureus 514/11 after 18 hrs by two-fold serial microdilution method; type: functional; details: 514/11, 18 h
# [23] = test system: Staphylococcus aureus; assay: Antimicrobial activity against methicillin-resistant Staphylococcus aureus 522/12 after 18 hrs by two-fold serial microdilution method; type: functional; details: 522/12, 18 h
# [24] = test system: Staphylococcus aureus; assay: Antimicrobial activity against methicillin-resistant Staphylococcus aureus 537/12 after 18 hrs by two-fold serial microdilution method; type: functional; details: 537/12, 18 h
# [25] = test system: Staphylococcus aureus; assay: Antimicrobial activity against methicillin-resistant Staphylococcus aureus 572/12 after 18 hrs by two-fold serial microdilution method; type: functional; details: 572/12, 18 h
# [26] = test system: Staphylococcus aureus; assay: Antimicrobial activity against methicillin-resistant Staphylococcus aureus 573/12 after 18 hrs by two-fold serial microdilution method; type: functional; details: 573/12, 18 h
# [27] = test system: Staphylococcus aureus; assay: Antimicrobial activity against methicillin-resistant Staphylococcus aureus 585/12 after 18 hrs by two-fold serial microdilution method; type: functional; details: 585/12, 18 h
# [28] = test system: Staphylococcus aureus; assay: Antimicrobial activity against methicillin-resistant Staphylococcus aureus 586/12 after 18 hrs by two-fold serial microdilution method; type: functional; details: 586/12, 18 h
# [29] = test system: Staphylococcus epidermidis; assay: Antimicrobial activity against methicillin-resistant Staphylococcus epidermidis 459/11 after 18 hrs by two-fold serial microdilution method; type: functional; details: 459/11, 18 h
# [30] = test system: Staphylococcus epidermidis; assay: Antimicrobial activity against methicillin-resistant Staphylococcus epidermidis 460/11 after 18 hrs by two-fold serial microdilution method; type: functional; details: 460/11, 18 h
# [31] = test system: Staphylococcus epidermidis; assay: Antimicrobial activity against methicillin-resistant Staphylococcus epidermidis 461/11 after 18 hrs by two-fold serial microdilution method; type: functional; details: 461/11, 18 h
# [32] = test system: Staphylococcus epidermidis; assay: Antimicrobial activity against methicillin-resistant Staphylococcus epidermidis 466/11 after 18 hrs by two-fold serial microdilution method; type: functional; details: 466/11, 18 h
# [33] = test system: Staphylococcus epidermidis; assay: Antimicrobial activity against methicillin-resistant Staphylococcus epidermidis 467/11 after 18 hrs by two-fold serial microdilution method; type: functional; details: 467/11, 18 h
# [34] = test system: Staphylococcus epidermidis; assay: Antimicrobial activity against methicillin-resistant Staphylococcus epidermidis 468/11 after 18 hrs by two-fold serial microdilution method; type: functional; details: 468/11, 18 h
# [35] = test system: Staphylococcus epidermidis; assay: Antimicrobial activity against methicillin-resistant Staphylococcus epidermidis 469/11 after 18 hrs by two-fold serial microdilution method; type: functional; details: 469/11, 18 h
# [36] = test system: Staphylococcus epidermidis; assay: Antimicrobial activity against methicillin-resistant Staphylococcus epidermidis 470/11 after 18 hrs by two-fold serial microdilution method; type: functional; details: 470/11, 18 h
# [37] = test system: Staphylococcus epidermidis; assay: Antimicrobial activity against methicillin-resistant Staphylococcus epidermidis 488/11 after 18 hrs by two-fold serial microdilution method; type: functional; details: 488/11, 18 h
# [38] = test system: Staphylococcus epidermidis; assay: Antimicrobial activity against methicillin-resistant Staphylococcus epidermidis 489/11 after 18 hrs by two-fold serial microdilution method; type: functional; details: 489/11, 18 h
# [39] = test system: LoVo; assay: Selectivity index, ratio of IC50 for mouse BALB/3T3 cells to IC50 for human LoVo cells; type: functional
# [40] = test system: HT-29; assay: Selectivity index, ratio of IC50 for mouse BALB/3T3 cells to IC50 for human HT-29 cells; type: functional
# [41] = Selectivity index, ratio of IC50 for mouse BALB/3T3 cells to IC50 for human LS180 cells; type: functional
# [42] = Selectivity index, ratio of IC50 for mouse BALB/3T3 cells to IC50 for human SW707 cells; type: functional
# [43] = test system: LoVo; assay: Resistance index, ratio of IC50 for human LoVo/DX cells to IC50 for human LoVo cells
smiles,measurement,setting,value
[N-]=[N+]=N[C@H]1C[C@H](n2cc(F)c(=O)[nH]c2=O)O[C@@H]1CO,IC50,[1],180 µM
same,IC50,[2],294 µM
same,inhibition (INH),[3],43%
same,IC50,[4],290 µM
same,inhibition (INH),[5],25%
same,inhibition (INH),[6],25%
same,inhibition (INH),[7],41%
same,IC50,[8],97.3 µM
same,Selectivity Index,[9],0.54
same,Selectivity Index,[10],0.33
same,Selectivity Index,[11],0.34
same,Ratio IC50,[12],1.63
same,MIC,[13],3.69 µM
same,MIC,[14],3.69 µM
same,MIC,[15],3.69 µM
same,MIC,[16],7.38 µM
same,MIC,[17],1.85 µM
same,MIC,[18],7.38 µM
same,MIC,[19],3.69 µM
same,MIC,[20],3.69 µM
same,MIC,[21],7.38 µM
same,MIC,[22],3.69 µM
same,MIC,[23],7.38 µM
same,MIC,[24],7.38 µM
same,MIC,[25],3.69 µM
same,MIC,[26],7.38 µM
same,MIC,[27],3.69 µM
same,MIC,[28],3.69 µM
same,MIC,[29],0.92 µM
same,MIC,[30],0.92 µM
same,MIC,[31],1.85 µM
same,MIC,[32],0.46 µM
same,MIC,[33],0.92 µM
same,MIC,[34],0.92 µM
same,MIC,[35],3.69 µM
same,MIC,[36],0.92 µM
same,MIC,[37],0.92 µM
same,MIC,[38],3.69 µM
CC[C@@H](C(=O)[C@@H](C)[C@@H](O)[C@H](C)[C@@H]1O[C@@H]([C@@H](CC)C(=O)NCc2cn([C@H]3C[C@H](n4cc(F)c(=O)[nH]c4=O)O[C@@H]3CO)nn2)CC[C@@H]1C)[C@H]1O[C@]2(C=C[C@@H](O)[C@]3(CC[C@@](C)([C@H]4CC[C@](O)(CC)[C@H](C)O4)O3)O2)[C@H](C)C[C@@H]1C,IC50,[1],28.7 µM
same,inhibition (INH),[2],20%
same,IC50,[3],41.2 µM
same,IC50,[4],70.4 µM
same,IC50,[5],30.1 µM
same,IC50,[6],32.8 µM
same,IC50,[7],35 µM
same,IC50,[8],29.6 µM
same,Selectivity Index,[9],1.03
same,Selectivity Index,[39],0.72
same,Selectivity Index,[11],0.42
same,Selectivity Index,[40],0.98
same,Selectivity Index,[41],0.9
same,Selectivity Index,[42],0.85
same,Ratio IC50,[43],1.71
same,MIC,[13],30.2 µM
same,MIC,[14],30.2 µM
same,MIC,[15],30.2 µM
same,MIC,[16],60.4 µM
same,MIC,[17],30.2 µM
same,MIC,[18],30.2 µM
same,MIC,[19],60.4 µM
same,MIC,[20],60.4 µM
same,MIC,[21],60.4 µM
same,MIC,[22],242 µM
same,MIC,[23],242 µM
same,MIC,[24],242 µM
same,MIC,[25],242 µM
same,MIC,[26],60.4 µM
same,MIC,[27],121 µM
same,MIC,[28],121 µM
same,MIC,[29],30.2 µM
same,MIC,[30],30.2 µM
same,MIC,[31],30.2 µM
same,MIC,[32],30.2 µM
same,MIC,[33],60.4 µM
same,MIC,[34],60.4 µM
same,MIC,[35],60.4 µM
same,MIC,[36],30.2 µM
same,MIC,[37],121 µM
same,MIC,[38],30.2 µM
CC[C@@H](C(=O)[C@@H](C)[C@@H](O)[C@H](C)[C@@H]1O[C@@H]([C@@H](CC)C(=O)OC[C@H]2O[C@@H](n3cc(F)c(=O)[nH]c3=O)C[C@@H]2O)CC[C@@H]1C)[C@H]1O[C@]2(C=C[C@@H](O)[C@]3(CC[C@@](C)([C@H]4CC[C@](O)(CC)[C@H](C)O4)O3)O2)[C@H](C)C[C@@H]1C,IC50,[1],0.37 µM
same,IC50,[2],2.82 µM
same,IC50,[3],1.46 µM
same,IC50,[4],0.93 µM
same,IC50,[5],2.02 µM
same,IC50,[6],2.25 µM
same,IC50,[7],1.99 µM
same,IC50,[8],32.3 µM
same,Selectivity Index,[9],87.24
same,Selectivity Index,[10],11.45
same,Selectivity Index,[39],22.11
same,Selectivity Index,[11],34.71
same,Selectivity Index,[40],15.98
same,Selectivity Index,[41],14.35
same,Selectivity Index,[42],16.22
same,Ratio IC50,[12],7.62
same,Ratio IC50,[43],0.64
same,MIC,[13],8.17 µM
same,MIC,[14],8.17 µM
same,MIC,[15],4.09 µM
same,MIC,[16],4.09 µM
same,MIC,[17],4.09 µM
same,MIC,[18],4.09 µM
same,MIC,[19],32.7 µM
same,MIC,[20],32.7 µM
same,MIC,[21],32.7 µM
same,MIC,[22],8.17 µM
same,MIC,[23],8.17 µM
same,MIC,[24],8.17 µM
same,MIC,[25],8.17 µM
same,MIC,[26],8.17 µM
same,MIC,[27],16.3 µM
same,MIC,[28],8.17 µM
same,MIC,[29],32.7 µM
same,MIC,[30],32.7 µM
same,MIC,[31],32.7 µM
same,MIC,[32],32.7 µM
same,MIC,[33],32.7 µM
same,MIC,[34],32.7 µM
same,MIC,[35],32.7 µM
same,MIC,[36],8.17 µM
same,MIC,[37],32.7 µM
same,MIC,[38],8.17 µM
O=C(O)c1cn(C2CC2)c2cc(N3CCNCC3)c(F)cc2c1=O [CIPROFLOXACIN],MIC,[13],0.76 µM
same,MIC,[15],0.76 µM
same,MIC,[17],0.76 µM
same,MIC,[19],96.7 µM
same,MIC,[20],96.7 µM
same,MIC,[22],96.7 µM
same,MIC,[23],96.7 µM
same,MIC,[26],96.7 µM
same,MIC,[31],0.76 µM
same,MIC,[38],0.76 µM
COc1cccc2c1C(=O)c1c(O)c3c(c(O)c1C2=O)C[C@@](O)(C(=O)CO)C[C@@H]3O[C@H]1C[C@H](N)[C@H](O)[C@H](C)O1 [DOXORUBICIN],IC50,[2],0.88 µM
same,IC50,[3],0.15 µM
same,IC50,[4],5.46 µM
same,IC50,[5],0.89 µM
same,IC50,[7],0.18 µM
same,IC50,[8],0.18 µM
